Laboratory results: patent US6664260B2, “Heterocyclic ether substituted imidazoquinolines” (3M Innovative Properties Company, priority 2000, dated 2003)
Where a name gives a salt, the structure may show the parent alone. Values belong to the compound of their own block, whether it stands above or below them.

What was measured:
[1] = test system: tumor necrosis factor (α); assay: Cytokine Induction in Human Cells: tumor necrosis factor (α) secreted by PBMCs, ELISA; type: cell-based; design: key to Lowest Effective Concentration (μM) Tumor Necrosis Factor: A “*” indicates that no induction was seen at any of the tested concentrations; generally the highest tested concentration was 10 or 30 μM; conditions: incubated 18 to 24 hours, lowest concentration found to induce tumor necrosis factor; for minimal effective concentration: PBMC
Source text: (§1) An in vitro human blood cell system is used to assess cytokine induction. Activity is based on the measurement of interferon and tumor necrosis factor (α) (IFN and TNF, respectively) secreted into culture media as described by Testerman et. al. In “Cytokine Induction by the Immunomodulators Imiquimod and S-27609”, Journal of Leukocyte Biology, 58, 365-372 (September, 1995).
(§2) Whole blood from healthy human donors is collected by venipuncture into EDTA vacutainer tubes. Peripheral blood mononuclear cells (PBMCs) are separated from whole blood by density gradient centrifugation using Histopaque®-1077. The PBMCs are washed twice with Hank's Balanced Salts Solution and then are suspended at 3-4×10^6 cells/mL in RPMI complete. The PBMC suspension is added to 48 well flat bottom sterile tissue culture plates (Costar, Cambridge, Mass. or Becton Dickinson Labware, Lincoln Park, N.J.) containing an equal volume of RPMI complete media containing test compound.
(§3) The compounds are solubilized in dimethyl sulfoxide (DMSO). The DMSO concentration should not exceed a final concentration of 1% for addition to the culture wells
(§4) The solution of test compound is added at 60 μM to the first well containing RPMI complete and serial 3 fold dilutions are made in the wells. The PBMC suspension is then added to the wells in an equal volume, bringing the test compound concentrations to the desired range (0.12 to 30 μM). The final concentration of PBMC suspension is 1.5-2×10^6 cells/mL. The plates are covered with sterile plastic lids, mixed gently and then incubated for 18 to 24 hours at 37° C. in a 5% carbon dioxide atmosphere.
(§5) Following incubation the plates are centrifuged for 5-10 minutes at 1000 rpm (˜200×g) at 4° C. The cell-free culture supernatant is removed with a sterile polypropylene pipet and transferred to sterile polypropylene tubes. Samples are maintained at −30 to −70° C. until analysis. The samples are analyzed for interferon (α) and for tumor necrosis factor (α) by ELISA.
Tumor necrosis factor (α) (TNF)concentration is determined using ELISA kits available from Genzyme, Cambridge, Mass.; R&D Systems, Minneapolis, Minn.; or Pharmingen, San Diego, Calif. Results are expressed in pg/mL.
(§6) The table below lists the lowest concentration found to induce interferon and the lowest concentration found to induce tumor necrosis factor for each compound.

interferon (α) = assay: Cytokine Induction in Human Cells: interferon (α) secreted by PBMCs, ELISA; type: cell-based; design: key to Lowest Effective Concentration (μM) Interferon: A “*” indicates that no induction was seen at any of the tested concentrations; generally the highest tested concentration was 10 or 30 μM; conditions: incubated 18 to 24 hours, lowest concentration found to induce interferon; for minimal effective concentration: PBMC
Source text: as §1, §2, §3, §4, §5
Interferon (α) concentration is determined by ELISA using a Human Multi-Species kit from PBL Biomedical Laboratories, New Brunswick, N.J. Results are expressed in pg/mL.
as §6

- melting point: 209 to 211 °C
Compound: Nc1nc2ccccc2c2c1ncn2CCOCc1cn(Cc2ccccc2)nn1 (as salt: hydrochloride) [Example 10, 1-{2-[(1-Benzyl-1H-1,2,3-triazol-4-yl)methoxy]ethyl}-1H-imidazo[4,5-c]quinoline-4-amine hydrochloride]

- melting point: 229 to 231 °C
Compound: Nc1nc2ccccc2c2c1ncn2CCOCc1cccnc1 (as salt: hydrochloride) [Example 13, 1-[2-(Pyridin-3-ylmethoxy)ethyl]-1H-imidazo[4,5-c]quinolin-4-amine Hydrochloride]

- melting point: 214 to 215 °C
Compound: Nc1nc2ccccc2c2c1ncn2CCOCC#Cc1ncccn1 (as salt: trifluoroacetate) [Example 17, 1-(2-{[3-(Pyrimidin-2-yl)-2-propynyl]oxy}ethyl)-1H-imidazo[4,5-c]quinolin-4-amine trifluoroacetate]

- melting point: 135 °C (dec.)
Compound: Nc1nc2ccccc2c2c1ncn2CCOCC#Cc1ccncc1 (as salt: trifluoroacetate) [Example 18, 1-(2-{[3-(Pyrid-4-yl)-2-propynyl]oxy}ethyl)-1H-imidazo[4,5-c]quinolin-4-amine bis(trifluoroacetate)]

- melting point: 160 to 162 °C
Compound: Nc1nc2ccccc2c2c1ncn2CCOCC#Cc1ccoc1 (as salt: trifluoroacetate) [Example 19, 1-(2-{[3-(Fur-3-yl)-2-propynyl]oxy}ethyl)-1H-imidazo[4,5-c]quinolin-4-amine trifluoroacetate]

- melting point: 129 to 131 °C
Compound: Nc1nc2ccccc2c2c1ncn2CCOCC#Cc1ccccn1 (as salt: trifluoroacetate) [Example 21, 1-(2-{[3-(Pyrid-2-yl)-2-propynyl]oxy}ethyl)-1H-imidazo[4,5-c]quinolin-4-amine trifluoroacetate]

Compound: Nc1nc2ccccc2c2c1ncn2CCOCC#Cc1cncc2ccccc12 [Example 1, 1-(2-{[3-(Isoquinolin-4-yl)-2-propynyl]oxy}ethyl)-1H-imidazo[4,5-c]quinolin-4-amine]
- minimal effective concentration [1]: 3.33 µM
- minimal effective concentration (interferon (α)): 0.12 µM

- melting point: 157 to 159 °C
Compound: Nc1nc2ccccc2c2c1ncn2CCOCC#Cc1nccs1 [Example 2, 1-(2-{[3-(1,3-Thiazol-2-yl)-2-propynyl]oxy}ethyl)-1H-imidazo[4,5-c]quinolin-4-amine]
- minimal effective concentration [1]: 10 µM
- minimal effective concentration (interferon (α)): 0.37 µM

Compound: Nc1nc2ccccc2c2c1ncn2CCOCCCc1cn[nH]c1 [Example 3, 1-{2-[3-(1H-Pyrazol-4-yl)propoxy]ethyl}-1H-imidazo[4,5-c]quinolin-4-amine]
- Lowest Effective Concentration (μM) Tumor Necrosis Factor [1]: *
- minimal effective concentration (interferon (α)): 0.04 µM

- melting point: 126 to 127 °C
Compound: Nc1nc2ccccc2c2c1ncn2CCOCCCc1ncccn1 [Example 4, 1-[2-(3-Pyrimidin-2-ylpropoxy)ethyl]-1H-imidazo[4,5-c]quinolin-4-amine]
- Lowest Effective Concentration (μM) Tumor Necrosis Factor [1]: *
- minimal effective concentration (interferon (α)): 3.33 µM

- melting point: 160 to 162 °C
Compound: Nc1nc2ccccc2c2c1ncn2CCOCCCc1ccncc1 [Example 5, 1-[2-(3-Pyridin-4-ylpropoxy)ethyl]-1H-imidazo[4,5-c]quinolin-4-amine]
- minimal effective concentration [1]: 0.37 µM
- minimal effective concentration (interferon (α)): 0.04 µM

Compound: Nc1nc2ccccc2c2c1ncn2CCOCCCc1cccnc1 [Example 8, 1-[2-(3-Pyridin-3-ylpropoxy)ethyl]-1H-imidazo[4,5-c]quinolin-4-amine Bis(trifluoroacetate)]
- minimal effective concentration [1]: 0.12 µM
- minimal effective concentration (interferon (α)): 0.04 µM

Compound: Nc1nc2ccccc2c2c1ncn2CCOCCCc1cncnc1 [Example 9, 1-[2-(3-Pyrimidin-5-ylpropoxy)ethyl]-1H-imidazo[4,5-c]quinolin-4-amine]
- minimal effective concentration [1]: 3.33 µM
- minimal effective concentration (interferon (α)): 0.12 µM

Compound: Nc1nc2ccccc2c2c1ncn2CCOCc1cn(Cc2ccccc2)nn1 [Example 10, 1-{2-[(1-Benzyl-1H-1,2,3-triazol-4-yl)methoxy]ethyl}-1H-imidazo[4,5-c]quinoline-4-amine hydrochloride]
- minimal effective concentration [1]: 1.11 µM
- minimal effective concentration (interferon (α)): 1.11 µM

Compound: Nc1nc2ccccc2c2c1ncn2CCOCc1cc2ccccc2o1 [Example 12, 1-[2-(Benzo[b]furan-2-ylmethoxy)ethyl]-1H-imidazo[4,5-c]quinolin-4-amine]
- Lowest Effective Concentration (μM) Tumor Necrosis Factor [1]: *
- minimal effective concentration (interferon (α)): 1.11 µM

Compound: Nc1nc2ccccc2c2c1ncn2CCOCc1cccnc1 [Example 13, 1-[2-(Pyridin-3-ylmethoxy)ethyl]-1H-imidazo[4,5-c]quinolin-4-amine Hydrochloride]
- minimal effective concentration [1]: 1.11 µM
- minimal effective concentration (interferon (α)): 0.37 µM

Compound: Nc1nc2ccccc2c2c1ncn2CCOCC#Cc1ncccn1 [Example 17, 1-(2-{[3-(Pyrimidin-2-yl)-2-propynyl]oxy}ethyl)-1H-imidazo[4,5-c]quinolin-4-amine trifluoroacetate]
- minimal effective concentration [1]: 0.37 µM
- minimal effective concentration (interferon (α)): 0.37 µM

Compound: Nc1nc2ccccc2c2c1ncn2CCOCC#Cc1ccncc1 [Example 18, 1-(2-{[3-(Pyrid-4-yl)-2-propynyl]oxy}ethyl)-1H-imidazo[4,5-c]quinolin-4-amine bis(trifluoroacetate)]
- minimal effective concentration [1]: 10 µM
- minimal effective concentration (interferon (α)): 0.37 µM

Compound: Nc1nc2ccccc2c2c1ncn2CCOCC#Cc1ccoc1 [Example 19, 1-(2-{[3-(Fur-3-yl)-2-propynyl]oxy}ethyl)-1H-imidazo[4,5-c]quinolin-4-amine trifluoroacetate]
- minimal effective concentration [1]: 3.33 µM
- minimal effective concentration (interferon (α)): 0.12 µM

Compound: Nc1nc2ccccc2c2c1ncn2CCOCC#Cc1csc(C=O)c1 [Example 20, 4-{3-[2-(4-Amino-1H-imidazo[4,5-c]quinolin-1-yl)ethoxy]-propyn-1-yl}thiophen-2-ylcarboxaldehyde trifluoroacetate]
- minimal effective concentration [1]: 3.33 µM
- minimal effective concentration (interferon (α)): 0.12 µM

Compound: Nc1nc2ccccc2c2c1ncn2CCOCC#Cc1ccccn1 [Example 21, 1-(2-{[3-(Pyrid-2-yl)-2-propynyl]oxy}ethyl)-1H-imidazo[4,5-c]quinolin-4-amine trifluoroacetate]
- minimal effective concentration [1]: 10 µM
- minimal effective concentration (interferon (α)): 1.11 µM

Compound: CC(Cn1cnc2c(N)nc3ccccc3c21)OCC1CCCO1 (centres unmarked) [Example 22]
- minimal effective concentration [1]: 10 µM
- minimal effective concentration (interferon (α)): 1.11 µM

Compound: CC(C)C(COc1ncccc1[N+](=O)[O-])n1cnc2c(N)nc3ccccc3c21 (centres unmarked) [Example 23]
- Lowest Effective Concentration (μM) Tumor Necrosis Factor [1]: *
- minimal effective concentration (interferon (α)): 1.11 µM

Compound: CC(C)C(COCc1csc2ccc(Cl)cc12)n1cnc2c(N)nc3ccccc3c21 (centres unmarked) [Example 24]
- Lowest Effective Concentration (μM) Tumor Necrosis Factor [1]: *
- Lowest Effective Concentration (μM) Interferon (interferon (α)): *

Compound: CC(Cn1cnc2c(N)nc3ccccc3c21)OCc1csc2ccc(Cl)cc12 (centres unmarked) [Example 25]
- Lowest Effective Concentration (μM) Tumor Necrosis Factor [1]: *
- minimal effective concentration (interferon (α)): 10 µM

Compound: CC(Cn1cnc2c(N)nc3ccccc3c21)Oc1ncccc1[N+](=O)[O-] (centres unmarked) [Example 26]
- Lowest Effective Concentration (μM) Tumor Necrosis Factor [1]: *
- minimal effective concentration (interferon (α)): 1.11 µM

Compound: CC(C)C(COc1ccccn1)n1cnc2c(N)nc3ccccc3c21 (centres unmarked) [Example 27, 1-{2-Methyl-1-[(pyrid-2-yloxy)methyl]propyl}-1H-imidazo[4,5-c]quinoline-4-amine trifluoroacetate]
- Lowest Effective Concentration (μM) Tumor Necrosis Factor [1]: *
- minimal effective concentration (interferon (α)): 1.11 µM

Compound: CC(Cn1cnc2c(N)nc3ccccc3c21)Oc1ccc2[nH]c3ccccc3c2c1 (centres unmarked) [Example 29, 1-[2-(9H-carbazol-3-yloxy)propyl]-1H-imidazo[4,5-c]quinolin-4-amine trifluoroacetate]
- Lowest Effective Concentration (μM) Tumor Necrosis Factor [1]: *
- minimal effective concentration (interferon (α)): 1.11 µM

Compound: CCCCc1nc2c(N)nc3ccccc3c2n1CCOCCCc1cccnc1 [Example 35, 2-Butyl-1-[2-(3-pyridin-3-ylpropoxy)ethyl]-1H-imidazo[4,5-c]quinoline-4-amine]
- minimal effective concentration [1]: 0.12 µM
- minimal effective concentration (interferon (α)): 0.01 µM

- melting point: 140 to 141 °C
Compound: Cc1nc2c(N)nc3c(c2n1CCOCCCc1cccnc1)CCCC3 [Example 37, 2-methyl-1-[2-(3-pyridin-3-ylpropoxy)ethyl]-6,7,8,9-tetrahydro-1H-imidazo[4,5-c]quinolin-4-amine]
